One test concerns the target T1, human Kv1.3 (CHO) (Homo sapiens, UniProt P22001).
T1 construct: expressed in transfected cells; host or cells: CHO
Description: cell-based.

The target of another test is T2, human Kv1.1 (HEK293) (Homo sapiens, UniProt Q09470).
T2 construct: expressed in transfected cells; host or cells: HEK293
Description: cell-based.

IC50 data for 8 molecules are collected here from patent US20090299044A1 (priority 2006, published 2009).

Each structure is given as a SMILES string. pIC50: −log10 of the molar value. Bridge positions count the residues as written; N and C are the ends. Square brackets hold non-standard residues; d marks the D form. Peptide text beside a SMILES is read from it. 1Nal = N[C@@H](Cc1cccc2ccccc12)C(=O)O

T2 sequence (Q09470 whole entry): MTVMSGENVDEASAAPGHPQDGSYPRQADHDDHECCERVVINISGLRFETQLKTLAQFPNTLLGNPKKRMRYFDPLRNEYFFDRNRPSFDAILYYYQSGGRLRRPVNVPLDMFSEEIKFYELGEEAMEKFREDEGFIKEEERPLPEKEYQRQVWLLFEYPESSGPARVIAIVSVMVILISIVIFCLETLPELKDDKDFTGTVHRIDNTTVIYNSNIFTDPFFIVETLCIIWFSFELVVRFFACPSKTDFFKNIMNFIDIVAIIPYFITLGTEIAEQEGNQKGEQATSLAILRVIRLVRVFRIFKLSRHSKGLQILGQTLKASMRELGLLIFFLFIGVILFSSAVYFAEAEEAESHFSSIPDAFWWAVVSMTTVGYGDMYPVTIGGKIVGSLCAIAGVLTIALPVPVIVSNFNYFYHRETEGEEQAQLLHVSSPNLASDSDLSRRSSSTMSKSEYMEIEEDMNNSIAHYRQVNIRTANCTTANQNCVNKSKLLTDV
T1 sequence (P22001 whole entry): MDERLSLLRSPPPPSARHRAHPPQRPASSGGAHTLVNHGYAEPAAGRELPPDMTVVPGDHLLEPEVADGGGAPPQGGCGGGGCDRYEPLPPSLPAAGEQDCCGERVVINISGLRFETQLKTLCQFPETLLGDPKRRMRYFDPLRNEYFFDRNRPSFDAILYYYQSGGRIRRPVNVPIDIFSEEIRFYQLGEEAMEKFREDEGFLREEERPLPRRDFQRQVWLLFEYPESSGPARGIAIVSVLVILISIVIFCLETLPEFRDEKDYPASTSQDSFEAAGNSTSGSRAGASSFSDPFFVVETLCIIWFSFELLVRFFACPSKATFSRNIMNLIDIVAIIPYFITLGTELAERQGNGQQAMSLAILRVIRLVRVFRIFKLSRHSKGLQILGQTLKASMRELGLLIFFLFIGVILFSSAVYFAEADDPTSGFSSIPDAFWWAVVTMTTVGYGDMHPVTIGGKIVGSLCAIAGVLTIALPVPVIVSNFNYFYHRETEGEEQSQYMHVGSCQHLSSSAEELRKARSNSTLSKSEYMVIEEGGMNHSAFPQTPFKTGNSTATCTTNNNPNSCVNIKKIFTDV

On to `CC[C@H](C)[C@@H]1NC(=O)[C@H](CCCCN)NC(=O)[C@@H](NC(=O)[C@H](CCCCN)NC(=O)[C@@H](NC(=O)[C@H](CC(N)=O)NC(=O)[C@@H](NC(=O)[C@@H](NC(=O)[C@@H](NC(=O)CN)C(C)C)[C@@H](C)CC)[C@@H](C)CC)C(C)C)CSSC[C@@H]2NC(=O)[C@H](CCCCN)NC(=O)CNC(=O)[C@H](Cc3ccccc3)NC(=O)[C@H](CCCNC(=N)N)NC(=O)[C@H](CCSC)NC(=O)CNC(=O)[C@H](C)NC(=O)[C@H](CCCCN)NC(=O)[C@H](CCCCN)NC(=O)[C@@H]3CSSC[C@@H](C(=O)N[C@H](C(=O)N4CCC[C@H]4C(=O)N[C@@H](CCCCN)C(=O)O)[C@@H](C)O)NC(=O)[C@H](Cc4c[nH]cn4)NC(=O)[C@H](CSSC[C@H](NC(=O)[C@H](CCC(N)=O)NC(=O)[C@H](CCCNC(=N)N)NC(=O)[C@H](CO)NC1=O)C(=O)N[C@@H](CC(C)C)C(=O)N[C@@H](CCC(=O)O)C(=O)N1CCC[C@H]1C(=O)N3)NC(=O)[C@H](CCCCN)NC(=O)[C@H](CCCNC(=N)N)NC(=O)[C@H](CC(N)=O)NC(=O)[C@H](CCSC)NC2=O` [G31R], for which the pIC50 is 10.65 at human Kv1.3 (CHO) and 11.80 on human Kv1.1 (HEK293).

As for `CC[C@H](C)[C@@H]1NC(=O)[C@H](CCCCN)NC(=O)[C@@H](NC(=O)[C@H](CCCCN)NC(=O)[C@@H](NC(=O)[C@H](CC(N)=O)NC(=O)[C@@H](NC(=O)[C@@H](NC(=O)[C@@H](NC(=O)CN)C(C)C)[C@@H](C)CC)[C@@H](C)CC)C(C)C)CSSC[C@@H]2NC(=O)[C@H](CCCCN)NC(=O)CNC(=O)[C@H](Cc3ccccc3)NC(=O)[C@H](CCCNC(=N)N)NC(=O)[C@H](CCSC)NC(=O)CNC(=O)[C@H](C)NC(=O)[C@H](CCCCN)NC(=O)[C@H](CCCCN)NC(=O)[C@@H]3CSSC[C@@H](C(=O)N[C@H](C(=O)N4CCC[C@H]4C(=O)N[C@@H](CCCCN)C(=O)O)[C@@H](C)O)NC(=O)[C@H](CCCNC(=N)N)NC(=O)[C@H](CSSC[C@H](NC(=O)[C@H](CCC(N)=O)NC(=O)[C@H](CCCNC(=N)N)NC(=O)[C@H](CO)NC1=O)C(=O)N[C@@H](CC(C)C)C(=O)N[C@@H](CCC(=O)O)C(=O)N1CCC[C@H]1C(=O)N3)NC(=O)[C@H](CCCCN)NC(=O)CNC(=O)[C@H](CC(N)=O)NC(=O)[C@H](CCSC)NC2=O` [H34R] (H-GVIINVKCKISRQCLEPCKKAGMRFGKCMNGKCRCTPK-OH; disulfide 8-28, 14-33, 18-35), the pIC50 was 10.87 against human Kv1.3 (CHO) and 11.35 on human Kv1.1 (HEK293).

Consider `CC[C@H](C)[C@H](NC(=O)[C@H](C)NC(=O)[C@@H](NC(=O)CN)C(C)C)C(=O)N[C@@H](CC(N)=O)C(=O)N[C@H](C(=O)N[C@@H](CCCCN)C(=O)N[C@H]1CSSC[C@@H]2NC(=O)[C@H](CCCCN)NC(=O)CNC(=O)[C@H](Cc3ccccc3)NC(=O)[C@H](CCCNC(=N)N)NC(=O)[C@H](CCSC)NC(=O)CNC(=O)[C@H](C)NC(=O)[C@H](CCCCN)NC(=O)[C@H](CCCCN)NC(=O)[C@@H]3CSSC[C@@H](C(=O)N[C@H](C(=O)N4CCC[C@H]4C(=O)N[C@@H](CCCCN)C(=O)O)[C@@H](C)O)NC(=O)[C@H](Cc4c[nH]cn4)NC(=O)[C@H](CSSC[C@H](NC(=O)[C@H](CCC(N)=O)NC(=O)[C@H](CCCNC(=N)N)NC(=O)[C@H](CO)NC(=O)[C@H]([C@@H](C)CC)NC(=O)[C@H](CCCCN)NC1=O)C(=O)N[C@@H](CC(C)C)C(=O)N[C@@H](CCC(=O)O)C(=O)N1CCC[C@H]1C(=O)N3)NC(=O)[C@H](CCCCN)NC(=O)CNC(=O)[C@H](CC(N)=O)NC(=O)[C@H](CCSC)NC2=O)C(C)C` [I3A] (H-GVAINVKCKISRQCLEPCKKAGMRFGKCMNGKCHCTPK-OH; disulfide 8-28, 14-33, 18-35), for which the values for the pIC50 against human Kv1.3 (CHO) and at human Kv1.1 (HEK293) were 10.02 and 10.97, respectively.

`CC[C@H](C)[C@@H]1NC(=O)[C@H](CCCCN)NC(=O)[C@@H](NC(=O)[C@H](CCCCN)NC(=O)[C@@H](NC(=O)[C@H](CC(N)=O)NC(=O)[C@@H](NC(=O)[C@H](CCC(=O)O)NC(=O)[C@@H](NC(=O)CN)C(C)C)[C@@H](C)CC)C(C)C)CSSC[C@@H]2NC(=O)[C@H](CCCCN)NC(=O)CNC(=O)[C@H](Cc3ccccc3)NC(=O)[C@H](CCCNC(=N)N)NC(=O)[C@H](CCSC)NC(=O)CNC(=O)[C@H](C)NC(=O)[C@H](CCCCN)NC(=O)[C@H](CCCCN)NC(=O)[C@@H]3CSSC[C@@H](C(=O)N[C@H](C(=O)N4CCC[C@H]4C(=O)N[C@@H](CCCCN)C(=O)O)[C@@H](C)O)NC(=O)[C@H](Cc4c[nH]cn4)NC(=O)[C@H](CSSC[C@H](NC(=O)[C@H](CCC(N)=O)NC(=O)[C@H](CCCNC(=N)N)NC(=O)[C@H](CO)NC1=O)C(=O)N[C@@H](CC(C)C)C(=O)N[C@@H](CCC(=O)O)C(=O)N1CCC[C@H]1C(=O)N3)NC(=O)[C@H](CCCCN)NC(=O)CNC(=O)[C@H](CC(N)=O)NC(=O)[C@H](CCSC)NC2=O` [I3E] (H-GVEINVKCKISRQCLEPCKKAGMRFGKCMNGKCHCTPK-OH; disulfide 8-28, 14-33, 18-35): the values for the pIC50 against human Kv1.3 (CHO) and against human Kv1.1 (HEK293) were 10.66 and 10.37, respectively.

Regarding `CC[C@H](C)[C@@H]1NC(=O)[C@H](CCCCN)NC(=O)[C@@H](NC(=O)[C@H](CCCCN)NC(=O)[C@@H](NC(=O)[C@H](CC(N)=O)NC(=O)[C@@H](NC(=O)[C@H](CCCNC(=N)N)NC(=O)[C@@H](NC(=O)CN)C(C)C)[C@@H](C)CC)C(C)C)CSSC[C@@H]2NC(=O)[C@H](CCCCN)NC(=O)CNC(=O)[C@H](Cc3ccccc3)NC(=O)[C@H](CCCNC(=N)N)NC(=O)[C@H](CCSC)NC(=O)CNC(=O)[C@H](C)NC(=O)[C@H](CCCCN)NC(=O)[C@H](CCCCN)NC(=O)[C@@H]3CSSC[C@@H](C(=O)N[C@H](C(=O)N4CCC[C@H]4C(=O)N[C@@H](CCCCN)C(=O)O)[C@@H](C)O)NC(=O)[C@H](Cc4c[nH]cn4)NC(=O)[C@H](CSSC[C@H](NC(=O)[C@H](CCC(N)=O)NC(=O)[C@H](CCCNC(=N)N)NC(=O)[C@H](CO)NC1=O)C(=O)N[C@@H](CC(C)C)C(=O)N[C@@H](CCC(=O)O)C(=O)N1CCC[C@H]1C(=O)N3)NC(=O)[C@H](CCCCN)NC(=O)CNC(=O)[C@H](CC(N)=O)NC(=O)[C@H](CCSC)NC2=O` [I3R] (H-GVRINVKCKISRQCLEPCKKAGMRFGKCMNGKCHCTPK-OH; disulfide 8-28, 14-33, 18-35), the pIC50 is 10.70 against human Kv1.3 (CHO) and 11.61 on human Kv1.1 (HEK293).

For `CC[C@H](C)[C@@H]1NC(=O)[C@H](CCCCN)NC(=O)[C@@H](NC(=O)[C@H](CCCCN)NC(=O)[C@@H](NC(=O)[C@H](CC(N)=O)NC(=O)[C@H](C)NC(=O)[C@@H](NC(=O)[C@@H](NC(=O)CN)C(C)C)[C@@H](C)CC)C(C)C)CSSC[C@@H]2NC(=O)[C@H](CCCCN)NC(=O)CNC(=O)[C@H](Cc3ccccc3)NC(=O)[C@H](CCCNC(=N)N)NC(=O)[C@H](CCSC)NC(=O)CNC(=O)[C@H](C)NC(=O)[C@H](CCCCN)NC(=O)[C@H](CCCCN)NC(=O)[C@@H]3CSSC[C@@H](C(=O)N[C@H](C(=O)N4CCC[C@H]4C(=O)N[C@@H](CCCCN)C(=O)O)[C@@H](C)O)NC(=O)[C@H](Cc4c[nH]cn4)NC(=O)[C@H](CSSC[C@H](NC(=O)[C@H](CCC(N)=O)NC(=O)[C@H](CCCNC(=N)N)NC(=O)[C@H](CO)NC1=O)C(=O)N[C@@H](CC(C)C)C(=O)N[C@@H](CCC(=O)O)C(=O)N1CCC[C@H]1C(=O)N3)NC(=O)[C@H](CCCCN)NC(=O)CNC(=O)[C@H](CC(N)=O)NC(=O)[C@H](CCSC)NC2=O` [I4A] (H-GVIANVKCKISRQCLEPCKKAGMRFGKCMNGKCHCTPK-OH; disulfide 8-28, 14-33, 18-35), the pIC50 on human Kv1.3 (CHO) was 9.71; on human Kv1.1 (HEK293) it was 10.77.

`CC[C@H](C)[C@@H]1NC(=O)[C@H](CCCCN)NC(=O)[C@@H](NC(=O)[C@H](CCCCN)NC(=O)[C@@H](NC(=O)[C@H](CC(N)=O)NC(=O)[C@H](CCC(=O)O)NC(=O)[C@@H](NC(=O)[C@@H](NC(=O)CN)C(C)C)[C@@H](C)CC)C(C)C)CSSC[C@@H]2NC(=O)[C@H](CCCCN)NC(=O)CNC(=O)[C@H](Cc3ccccc3)NC(=O)[C@H](CCCNC(=N)N)NC(=O)[C@H](CCSC)NC(=O)CNC(=O)[C@H](C)NC(=O)[C@H](CCCCN)NC(=O)[C@H](CCCCN)NC(=O)[C@@H]3CSSC[C@@H](C(=O)N[C@H](C(=O)N4CCC[C@H]4C(=O)N[C@@H](CCCCN)C(=O)O)[C@@H](C)O)NC(=O)[C@H](Cc4c[nH]cn4)NC(=O)[C@H](CSSC[C@H](NC(=O)[C@H](CCC(N)=O)NC(=O)[C@H](CCCNC(=N)N)NC(=O)[C@H](CO)NC1=O)C(=O)N[C@@H](CC(C)C)C(=O)N[C@@H](CCC(=O)O)C(=O)N1CCC[C@H]1C(=O)N3)NC(=O)[C@H](CCCCN)NC(=O)CNC(=O)[C@H](CC(N)=O)NC(=O)[C@H](CCSC)NC2=O` [I4E] (H-GVIENVKCKISRQCLEPCKKAGMRFGKCMNGKCHCTPK-OH; disulfide 8-28, 14-33, 18-35): the results for the pIC50 on human Kv1.3 (CHO) and against human Kv1.1 (HEK293) were 10.81 and 11.50, respectively.

On to `CC[C@H](C)[C@@H]1NC(=O)[C@H](CCCCN)NC(=O)[C@@H](NC(=O)[C@H](CCCCN)NC(=O)[C@@H](NC(=O)[C@H](CC(N)=O)NC(=O)[C@H](Cc2cccc3ccccc23)NC(=O)[C@@H](NC(=O)[C@@H](NC(=O)CN)C(C)C)[C@@H](C)CC)C(C)C)CSSC[C@@H]2NC(=O)[C@H](CCCCN)NC(=O)CNC(=O)[C@H](Cc3ccccc3)NC(=O)[C@H](CCCNC(=N)N)NC(=O)[C@H](CCSC)NC(=O)CNC(=O)[C@H](C)NC(=O)[C@H](CCCCN)NC(=O)[C@H](CCCCN)NC(=O)[C@@H]3CSSC[C@@H](C(=O)N[C@H](C(=O)N4CCC[C@H]4C(=O)N[C@@H](CCCCN)C(=O)O)[C@@H](C)O)NC(=O)[C@H](Cc4c[nH]cn4)NC(=O)[C@H](CSSC[C@H](NC(=O)[C@H](CCC(N)=O)NC(=O)[C@H](CCCNC(=N)N)NC(=O)[C@H](CO)NC1=O)C(=O)N[C@@H](CC(C)C)C(=O)N[C@@H](CCC(=O)O)C(=O)N1CCC[C@H]1C(=O)N3)NC(=O)[C@H](CCCCN)NC(=O)CNC(=O)[C@H](CC(N)=O)NC(=O)[C@H](CCSC)NC2=O` [I4Nal] (H-GVI[1Nal]NVKCKISRQCLEPCKKAGMRFGKCMNGKCHCTPK-OH; disulfide 8-28, 14-33, 18-35), for which the pIC50 on human Kv1.3 (CHO) is 10.82; on human Kv1.1 (HEK293) it was above 11.82.
